Results: ChEMBL document CHEMBL4052749, “Selective inhibitors of human mPGES-1 from structure-based computational screening” (Bioorg Med Chem Lett, 2017)

Columns and labels:
[1] = target: T1, Prostaglandin E synthase (Homo sapiens) (UniProt O14684); test: Inhibition of human mPGES-1 expressed in 293-F cells using PGH2 as substrate preincubated for 15 mins followed by substrate addition measured after 30 secs at 10 uM by enzyme immunoassay
T1 sequence (whole entry): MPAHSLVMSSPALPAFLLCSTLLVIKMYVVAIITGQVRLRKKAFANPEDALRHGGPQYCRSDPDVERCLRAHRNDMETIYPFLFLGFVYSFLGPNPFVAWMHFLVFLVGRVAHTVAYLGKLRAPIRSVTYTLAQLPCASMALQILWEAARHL

Prostaglandin E synthase = target: T2, Prostaglandin E synthase (Homo sapiens, UniProt O14684); test: Inhibition of human mPGES-1 expressed in 293-F cells using PGH2 as substrate preincubated for 15 mins followed by substrate addition measured after 30 secs enzyme immunoassay; assay type: cell-based
T2 sequence (O14684 whole entry): T1 sequence (whole entry)

[2] = tested on: COX1/COX2 (ovine COX1, human COX2; the isoform is not stated for the values); test: Inhibition of ovine COX1/human COX2 assessed as reduction in PGH2 production by measuring PGF2alpha at 100 uM using PG-acetylcholinesterase as tracer by colorimetry; conditions: ovine COX1/human COX2 enzymes
[3] = Inhibition of ovine COX1/human COX2 assessed as reduction in PGH2 production by measuring PGF2alpha using PG-acetylcholinesterase as tracer by colorimetry

SMILES	inhibition [1] [%]	other results
CCCCCCCCCCCC(=O)Nc1ccc(SSc2ccc(NC(=O)CCCCCCCCCCC)cc2)cc1	70	–
O=C(N/N=C\c1ccccc1/C=N\NC(=O)Nc1ccc(/N=N/c2ccccc2)cc1)Nc1ccc(/N=N/c2ccccc2)cc1	71	–
CCCCOc1ccc(NC(=S)Nc2ccc(N(C)C)cc2)cc1 [THIAMBUTOSINE]	99	IC50 (Prostaglandin E synthase): 370 nM; inhibition at 100 µM [2]: 1%
S=C(Nc1ccccc1)N1CCC(CCCC2CCN(C(=S)Nc3ccccc3)CC2)CC1	53	–
O=c1oc2ccccc2n1P(=O)(N1CCOCC1)N1CCOCC1	29	–
CC(=O)N[C@H]1[C@@H](OCc2ccccc2)O[C@H](CO)[C@H](O)[C@@H]1C[C@H](C)C(=O)N[C@@H](C)C(=O)N[C@H](CCC(=O)OCCNc1c2ccccc2nc2cccc([N+](=O)[O-])c12)C(N)=O	37	–
O=C(Nc1cccc2c(OC(=O)C(Cl)Cl)c(/C=C/c3ccc(S(=O)(=O)Nc4nccs4)cc3)cc(/N=N/c3ccc(S(=O)(=O)Nc4nccs4)cc3)c12)C(Cl)Cl	10	–
O=[N+]([O-])c1ccc(CSc2ncc(Br)c(SCc3ccc([N+](=O)[O-])cc3)n2)cc1	26	–
CC1=NN(C(=O)CC(=O)Nc2ccccc2C)C(=O)[C@@H]1/C=N/c1ccc(S(=O)(=O)c2ccc(/N=N/[C@@H]3C(=O)N(C(=O)CC(=O)Nc4ccccc4C)N=C3C)cc2)cc1	36	–
O=C(C[C@H](c1ccc2c(c1)OCO2)N1CCN([C@H](CC(=O)c2ccc(Br)cc2)c2ccc3c(c2)OCO3)CC1)c1ccc(Br)cc1	50	–
CC(C)(C)c1cc(OCc2nnc3sc(-c4ccc(Cl)cc4)nn23)c(Cl)cc1OCc1nnc2sc(-c3ccc(Cl)cc3)nn12	75	IC50 (Prostaglandin E synthase): 917 nM; inhibition at 100 µM [2]: 15%
C[C@@H]1c2c(cc(OC(=O)c3cccc(S(=O)(=O)F)c3)nc2OC(=O)c2cccc(S(=O)(=O)F)c2)C(=O)N1Cc1ccccc1	15	–
Cc1ccc(NC(=S)N2CCC(CCCC3CCN(C(=S)Nc4ccc(C)cc4C)CC3)CC2)c(C)c1	49	–
CCCCCCCCCCCCc1ccc(NC2=C(Cl)C(=O)C(Nc3ccc(CCCCCCCCCCCC)cc3)=C(Cl)C2=O)cc1	49	–
COc1ccc2nc3cc(Cl)ccc3c(SCC(=O)Nc3ccccc3-c3ccccc3NC(=O)CSc3c4ccc(Cl)cc4nc4ccc(OC)cc34)c2c1	57	–
Cn1c2ccccc2c(=S)c2cc(NC(=O)CCCCC(=O)Nc3ccc4c(c3)c(=S)c3ccccc3n4C)ccc21	25	–
O=C(C(=O)c1ccc(/N=C/c2ccc(N(CCCl)CCCl)cc2)cc1)c1ccc(/N=C/c2ccc(N(CCCl)CCCl)cc2)cc1	28	–
Cc1cc(NS(=O)(=O)c2ccc(/N=N/c3cc(/N=N/c4ccc(S(=O)(=O)Nc5cc(C)nc(C)n5)cc4)c4c(NC(=O)C(Cl)Cl)cccc4c3OC(=O)C(Cl)Cl)cc2)nc(C)n1	46	–
O=[N+]([O-])c1ccc(N/N=C(\C=C\c2ccc3c(c2)OCO3)c2cnc(Nc3ccc(Cl)c(Cl)c3)s2)c([N+](=O)[O-])c1	98	IC50 (Prostaglandin E synthase): 284 nM; inhibition at 100 µM [2]: 8%
Cc1ccccc1NC(=O)/C(Cc1nc2ccc(C(=O)c3ccccc3)cc2nc1O)=N\NC(=O)c1ccncc1	94	IC50 (Prostaglandin E synthase): 664 nM; inhibition at 100 µM [2]: 0%

SMILES	inhibition [1] [%]	other results
COc1ccc(N(Nc2ccc(Br)cc2)c2ccccc2N(Nc2ccc(Br)cc2)c2ccccc2OC)cc1	100	IC50 (Prostaglandin E synthase): 889 nM; inhibition at 100 µM [2]: 37%; IC50 [3]: > 100 µM
C[n+]1ccc(Nc2ccc(NC(=O)c3ccc(Nc4cc[n+](C)c5ccc(N)cc45)cc3N)cc2)cc1	30	–
CC(C)(C)OC(=O)N[C@H](Cc1ccc(OCc2ccccc2)cc1)C(=O)N[C@H](CCCCNC(=O)OCc1ccccc1)C(=O)ON1C(=O)CCC1=O	32	–
CCOC(=O)CC(=O)c1cn(CCCOC(=O)CCCCCCCCC(=O)OCCCn2cc(C(=O)CC(=O)OCC)c(=O)[nH]c2=O)c(=O)[nH]c1=O	48	–
CC/C(=C(/CC)c1ccc(Oc2nc(N3CC3)nc(N3CC3)n2)cc1)c1ccc(Oc2nc(N3CC3)nc(N3CC3)n2)cc1	46	–
Cc1ccc(NC(=O)c2cc(S(=O)(=O)Nc3n[nH]c(=O)[nH]3)c(SSc3cc(Cl)c(C(=O)Nc4ccc(C)cc4)cc3S(=O)(=O)Nc3n[nH]c(=O)[nH]3)cc2Cl)cc1	47	–
O=P1(N(CCCl)CCCl)N(Cc2ccc(Cl)c(Cl)c2)CCCN1Cc1ccc(Cl)c(Cl)c1	65	–
O=C(Nc1ccc(Cl)cc1)Nc1nnc(-c2cccc(-c3nnc(NC(=O)Nc4ccc(Cl)cc4)o3)c2)o1	59	–
CC(=O)O[C@H]1CC[C@]2(C)C3C[C@@]4(C)C(CCC4[C@@H](C)CCCC(C)C)C[C@]3(C#N)n3c(=O)n(-c4ccccc4)c(=O)n3[C@]2(C#N)C1 (some centres undefined)	99	IC50 (Prostaglandin E synthase): 276 nM; inhibition at 100 µM [2]: 14%
O=C(OCCN(CCOC(=O)c1ccccc1)C(=O)N(CCOC(=O)c1ccccc1)CCOC(=O)c1ccccc1)c1ccccc1	46	–
Cc1noc(NS(=O)(=O)c2ccc(/N=N/c3cc(/N=N/c4ccc(S(=O)(=O)Nc5onc(C)c5C)cc4)c4c(NC(=O)C(Cl)Cl)cccc4c3OC(=O)C(Cl)Cl)cc2)c1C	43	–
N#Cc1cccc(C2C(=O)c3c(c(-c4ccccc4)c(-c4ccc(Sc5ccc(-c6c(-c7ccccc7)c7c(c(-c8ccccc8)c6-c6ccccc6)C(=O)N(c6cccc(C#N)c6)C7=O)cc5)cc4)c(-c4ccccc4)c3-c3ccccc3)C2=O)c1 (centres undefined)	100	IC50 (Prostaglandin E synthase): 439 nM; inhibition at 100 µM [2]: 9%
CC(C)C(=O)OCC(C)(C)[C@H](OC(=O)COc1ccc(Cl)cc1Cl)C(C)C	69	–
CCOc1ccc(NC(=S)N2CCC(CCCC3CCN(C(=S)Nc4ccc(OCC)cc4)CC3)CC2)cc1	59	–
O=C(Nc1ccccc1)c1cc(S(=O)(=O)Nc2n[nH]c(=O)[nH]2)c(SSc2cc(Cl)c(C(=O)Nc3ccccc3)cc2S(=O)(=O)Nc2n[nH]c(=O)[nH]2)cc1Cl	59	–
N#C[C@@H](c1ccccc1)N(CCCCCCN(C(=O)c1ccccc1)[C@@H](C#N)c1ccccc1)C(=O)c1ccccc1	40 to 44	–
CN(Cc1ccc(Cl)cc1)C(=O)NCCCCCCNC(=O)N(C)Cc1ccc(Cl)cc1	64	–
COc1ccc(C(=O)COC(=O)[C@H](C[Se][Se]C[C@H](NC(=O)c2ccc(Br)cc2F)C(=O)OCC(=O)c2ccc(OC)cc2)NC(=O)c2ccc(Br)cc2F)cc1	65	–
CC[n+]1ccc(Nc2ccc(NC(=O)c3ccc(Nc4cc[n+](CC)c5ccc([N+](=O)[O-])cc45)cc3)cc2)cc1	70	–
